Test [1] concerns human jejunum-derived organoids. Briefly: Organoid swelling response quantified by cross-sectional area with 3D-scanning system. The class given is cell-based. The following applies: for dose-response curve profile of swelling: human jejunal organoid, FIG. 12. The protocol:
The organoid cross-sectional area was measured using a 3D-Scanning System (Cell3 […], Screen Holdings, Kyoto, Japan) as the image analysis device 100. […] After the passage of a preliminary culture process of leaving for 24 hours after seeding, scanning was then performed both before and 30 min after the addition of the reagent subject to analysis. An image was acquired during scanning in auto-focus (AF) mode. The analysis parameters summarized in following Table 1 were set and the cross-sectional area of recognized organoids measured automatically. Note that changes over time due to the addition of a reagent subjected to analysis can be observed in the following manner. Namely, an object is imaged at time (T0) prior to adding a reagent subjected to analysis (T0 imaging process). Then the same object is imaged at time (TN) when a prescribed time (30 minutes, for example) has elapsed since adding the reagent subjected to analysis. Determination is then made as to whether or not the object is an object subjected to analysis. By performing the selection process and the determination process, the change over time observations are only made for objects determined be subjected to analysis thereby at both time T0 and time TN. Then in an area change calculation process, an area (A0) at time T0 and an area (AN) at time TN are calculated for the objects subject to analysis. The change over time (%) based thereon can be found, for example, using the following formula. (AN-A0)/A0×100 Using forskolin-induced swelling as a positive control, testing was next performed so see if such a swelling response could be quantified using the 3D-scanning system described. To optimize the quantification efficiency and accuracy, organoids were subjected to analysis after performing the preliminary culture process at one day after the last passage. This was done since the organoids generally held their cystic shape at this time point. The thresholds to recognize cross-section borders of each organoid were then optimized as set out in Table 1. Thus utilizing the fluid secretion function measurement method of the present embodiment enables drug response screening to be performed at the same time as determining the dose-dependency curves of a limited number of test reagents. Whether or not the present system could determine the dose-dependency curves of forskolin was thereby tested. The dose-dependency curve for forskolin-induced swelling when using a human jejunum-derived organoids was thereby found to be expressed by a standard sigmoid shaped curve, with the log EC50 value thereof calculated as -7.58 (FIG. 10).

The subject of test [2] is human intestinal organoids. Kind of test: Organoid swelling observed by phase contrast / time-lapse imaging. Type of test: cell-based. The following applies: for increase in cross-sectional area of organoids: 60 min after induction, same mediator concentrations as FIG. 11; for swelling response induced by endogenous mediator: PGE2 10^−8 M, VIP 10^−7 M, ACh 10^−3 M, histamine 10^−3 M, bradykinin 10^−5 M, serotonin 10^−3 M, up to 60 min after induction. As for the experimental part:
The phase contrast images illustrated are prior to swelling induction and 60 minutes after swelling induction. Scale-bar: 100 μm. Induction was by the addition to a culture medium of: PGE2 (10^−8 M, (A)), VIP (10^−7 M, (B)), ACh (10^−3 M, (C)), histamine (10^−3 M, (D)), bradykinin (10^−5 M, (E)), and serotonin (10^−3 M, (F)).
Examination of Endogenous Mediator Candidates for Anion/Fluid Secretion Next, the fluid secretion function measurement method of the present embodiment was employed to examine the direct effect of various endogenous mediators that might possibly induce anion/fluid secretion from intestinal epithelial cells by testing six types of endogenous mediators to determine if they had the capability to induce a swelling response in organoids equivalent to that of forskolin-induced swelling.

Counter-ions that a name gives are not always drawn. No end group written: not given here.

`CCCCC[C@H](O)/C=C/[C@H]1[C@H](O)CC(=O)[C@@H]1C/C=C\CCCC(=O)O` [PGE2, prostaglandin E2]: the “dose-response curve profile of swelling” value in test [1] is “clear sigmoid-shaped response curve”. Also, in test [2], the “increase in cross-sectional area of organoids” value (from here on “increase”) is “large overall increase”; the “swelling response induced by endogenous mediator” value (shortened to “swelling response induced”) was “rapid and continuous response”.

In the case of `C=C[C@@]1(C)CC(=O)[C@]2(O)[C@@]3(C)[C@@H](O)CCC(C)(C)[C@@H]3[C@H](O)[C@H](OC(C)=O)[C@@]2(C)O1` [forskolin], the “time of continuous linear swelling response after stimulation” value in test [1] (forskolin 10^−5 M, observed up to 240 min, area change calculation) is “up to 30 min”. In test [1] (human small intestinal (jejunum-derived) organoids, sigmoid dose-dependency curve, average of at least three independent tests, value is log EC50, read-out: log EC50 of forskolin-induced swelling (converted)), the EC50 (commonly the concentration giving half of the maximal effect) is 26.3 nM. The “time for which swelling continued” value in test [2] (small intestinal organoids, forskolin 10^−5 M) is “at least 60 min”.

In the case of `NCCc1c[nH]cn1` [histamine], the “dose-response curve profile of swelling” value in test [1] is listed as “markedly lower response profile”. Besides, in test [2], the “increase” value is on record as “smaller than for PGE2 or VIP”; the “swelling response induced” value is “slow and limited response”.

Turning to `NCCc1c[nH]c2ccc(O)cc12` [serotonin, serotonin hydrochloride], the “swelling response induced” value in test [2] is on record as “did not exhibit a clear effect”.

As for “vasoactive intestinal polypeptide (HSDAVFTDNYTRLRKQMAVKKYLNSILN; ends and bridges not checked; UniProt P01282 125-152, looked up) [VIP, endogenous mediator acting through Gs-coupled receptors]”, in test [1], the “dose-response curve profile of swelling” value is on record as “clear sigmoid-shaped response curve”. Besides, in test [2], the “increase” value is “large overall increase”; the “swelling response induced” value was “rapid and continuous response”.
